Laboratory results: patent publication US10669272B2, “Substituted naphthyridinone compounds useful as T cell activators” (BRISTOL-MYERS SQUIBB COMPANY, priority 2018, dated 2020)
Like-named read-outs stand apart in the source and are kept apart here.

Experiments:
[1] = molecular target: T1, human DGKζ (Homo sapiens, UniProt Q13574); experiment: DGKζ LIPGLO assay (extruded liposome substrate), in vitro DGK inhibition; assay type: biochemical; conditions: read-out: DGKz LIPGLO IC50
T1 construct: TVMV protease cleavage site (C); Hexa-His (C); made in house; host or cells: Sf9 insect cells (baculovirus, Bac-to-Bac)

[2] = tested on: Human venous whole blood; experiment: Human whole blood IFN-γ assay; assay type: cell-based; conditions: human whole blood, read-out: INFg Whole Blood Normalized Agonist EC50;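 note: blood from healthy donors exposed to compound for 1 h before stimulation with anti-CD3 and anti-CD28 at 1 µg/mL each, IFN-γ quantified in supernatant by AlphaLISA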
Protocol: Human Whole Blood IFN-γ Assay
Human venous whole blood (22.5 μL per well), obtained from healthy donors, was pre-treated with compounds for one hour at 37° C. in a humidified 95% air/5% CO2 incubator. The blood was stimulated with 2.5 μL anti-human CD3 and anti-CD28 mAb at a final concentration of 1 μg/mL each for 24 hours at 37° C. IFN-γ in the supernatants was measured using AlphLISA kit (Cat # AL217).

[3] = molecular target: T2, human DGKα (Homo sapiens, UniProt P23743); experiment: DGKα LIPGLO assay (extruded liposome substrate), in vitro DGK inhibition; assay type: biochemical
T2 construct: TVMV protease cleavage site (C); Hexa-His (C); made in house; host or cells: Sf9 insect cells (baculovirus, Bac-to-Bac)

[4] = normalized to 3 μM reference compound with anti-CD3 plus anti-CD28 as 100% activation
[5] = liposome (LIPGLO) assay, read-out: DGKa LIPGLO IC50
[6] = Homo sapiens, 24 h, normalized to 3 μM reference compound with anti-CD3 plus anti-CD28 as 100% activation
[7] = Homo sapiens, 24 h, anti-CD3 plus anti-CD28, 24 hours, 3 μM reference compound = 100% activation
[8] = DGKα liposome (LIPGLO) assay, read-out: DGKa LIPGLO IC50
[9] = anti-CD3 plus anti-CD28, 24 hours, 3 μM reference compound = 100% activation

T1 sequence (Q13574 with tags, fused parts or gaps isoform Q13574-4): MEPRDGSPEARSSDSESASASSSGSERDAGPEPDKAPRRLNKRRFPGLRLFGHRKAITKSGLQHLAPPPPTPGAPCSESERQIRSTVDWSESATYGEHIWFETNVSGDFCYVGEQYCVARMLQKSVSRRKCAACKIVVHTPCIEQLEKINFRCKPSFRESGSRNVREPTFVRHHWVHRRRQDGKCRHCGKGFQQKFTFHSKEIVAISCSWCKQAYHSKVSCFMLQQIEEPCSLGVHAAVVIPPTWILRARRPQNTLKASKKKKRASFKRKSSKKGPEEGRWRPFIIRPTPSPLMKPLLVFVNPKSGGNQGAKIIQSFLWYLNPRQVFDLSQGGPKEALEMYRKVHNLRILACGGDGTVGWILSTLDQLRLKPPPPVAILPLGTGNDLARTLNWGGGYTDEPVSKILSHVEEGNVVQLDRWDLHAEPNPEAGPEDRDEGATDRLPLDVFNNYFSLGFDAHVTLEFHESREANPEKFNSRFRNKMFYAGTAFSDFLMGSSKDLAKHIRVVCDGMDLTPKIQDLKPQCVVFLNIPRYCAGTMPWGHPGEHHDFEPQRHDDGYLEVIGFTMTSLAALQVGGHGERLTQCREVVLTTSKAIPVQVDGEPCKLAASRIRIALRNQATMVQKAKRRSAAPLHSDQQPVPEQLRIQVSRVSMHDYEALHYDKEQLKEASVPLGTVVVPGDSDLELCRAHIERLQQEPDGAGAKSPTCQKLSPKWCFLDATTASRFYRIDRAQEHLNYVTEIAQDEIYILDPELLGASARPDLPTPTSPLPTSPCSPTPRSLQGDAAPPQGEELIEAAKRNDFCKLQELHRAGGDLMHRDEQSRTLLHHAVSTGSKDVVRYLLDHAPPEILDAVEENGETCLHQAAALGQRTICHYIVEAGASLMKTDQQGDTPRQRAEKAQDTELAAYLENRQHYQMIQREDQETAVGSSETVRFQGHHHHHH
T2 sequence (P23743 with tags, fused parts or gaps): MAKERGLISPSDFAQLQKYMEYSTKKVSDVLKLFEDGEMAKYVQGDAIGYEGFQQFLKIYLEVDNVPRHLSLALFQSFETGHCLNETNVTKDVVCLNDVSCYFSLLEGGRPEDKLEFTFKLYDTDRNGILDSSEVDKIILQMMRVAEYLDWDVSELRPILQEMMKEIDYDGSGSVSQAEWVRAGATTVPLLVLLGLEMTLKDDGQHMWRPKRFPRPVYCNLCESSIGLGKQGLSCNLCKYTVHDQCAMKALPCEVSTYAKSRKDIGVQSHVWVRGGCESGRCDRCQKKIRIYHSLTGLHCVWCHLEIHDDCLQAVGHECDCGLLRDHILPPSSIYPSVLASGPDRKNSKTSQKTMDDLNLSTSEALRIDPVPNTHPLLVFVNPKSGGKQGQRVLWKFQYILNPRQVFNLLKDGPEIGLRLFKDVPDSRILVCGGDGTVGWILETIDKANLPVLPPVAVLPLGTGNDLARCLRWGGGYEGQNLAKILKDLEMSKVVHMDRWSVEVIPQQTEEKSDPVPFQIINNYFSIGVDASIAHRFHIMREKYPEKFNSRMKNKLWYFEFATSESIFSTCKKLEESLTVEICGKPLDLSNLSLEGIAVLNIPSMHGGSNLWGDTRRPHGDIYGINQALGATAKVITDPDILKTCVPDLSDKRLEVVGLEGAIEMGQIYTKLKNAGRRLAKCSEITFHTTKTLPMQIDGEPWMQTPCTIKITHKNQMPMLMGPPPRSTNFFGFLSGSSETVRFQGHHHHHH

| SMILES | IC50 ([1]; liposome (LIPGLO) assay) [nM] | EC50 [2, 4] [nM] | IC50 [3, 5] [nM] | EC50 [2, 6] [nM] | IC50 ([1]; DGKζ liposome (LIPGLO) assay) [nM] | IC50 [3, 8] [nM] | EC50 [2, 9] [nM] | further results |
| --- | --- | --- | --- | --- | --- | --- | --- | --- |
| CC(c1ccc2c(c1)OC(F)(F)O2)N1C[C@H](C)N(c2cc(=O)n(C)c3ccc(C#N)nc23)C[C@H]1C (single isomer, unassigned) [Example 655] | 1300 | 6600 | 4200 |  |  |  |  |  |
| Cc1noc(C)c1CN1C[C@H](C)N(c2cc(=O)n(C)c3ccc(C#N)nc23)C[C@H]1C [Example 1426] | 4000 |  | 33000 | 20000 |  |  |  |  |
| C[C@@H]1CN(c2c(C#N)c(=O)n(C)c3ccc(C#N)nc23)CCN1C(c1ccc(F)cc1)c1cn(C)cn1 (single isomer, unassigned) [Example 1026] | 65000 | 20000 | 20000 |  |  |  |  |  |
| Cc1ccc(C(c2cccc(F)c2)N2CCN(c3c(C#N)c(=O)n(C)c4ccc(C#N)nc34)C[C@H]2C)nc1 (single isomer, unassigned) [Example 923] |  |  |  |  | 1900 | 5500 |  | EC50 [2, 7]: 800 nM |
| Cc1c(F)ccc(C(C)N2C[C@H](C)N(c3cc(=O)n(C)c4ccc(C#N)nc34)C[C@H]2C)c1Cl (single isomer, unassigned) [Example 433] | 240 |  | 79000 | 1300 |  |  |  |  |
| C[C@@H]1CN(c2c(C#N)c(=O)n(C)c3ccc(C#N)nc23)CCN1C(c1cccc(F)c1)c1ccc(C(F)(F)F)cn1 (single isomer, unassigned) [Example 948] |  |  |  |  | 310 | 600 | 340 |  |
| CCOc1cc(F)c(CN2C[C@H](C)N(c3cc(=O)n(C)c4ccc(C#N)nc34)C[C@H]2C)c(F)c1 [Example 1275] | 260 |  | 140 | 190 |  |  |  |  |
| C[C@@H]1CN(c2cc(=O)n(C)c3ccc(C#N)nc23)[C@@H](C)CN1C(c1ccc(F)cc1)c1nc(C(F)F)no1 (stereo partly drawn) [Example 744] |  |  |  |  | 620 | 49 | 310 |  |
| COc1ccc(C(c2ccc(F)cc2)N2C[C@H](C)N(c3cc(=O)n(C)c4ccc(C#N)nc34)C[C@H]2C)cc1 (stereo partly drawn) [Example 659] | 310 | 17000 | 1400 |  |  |  |  |  |
| CC[C@@H]1CN(c2cc(=O)n(C)c3ccc(C#N)nc23)[C@@H](C)CN1Cc1ccccc1 [Example 1076] | 1000 |  | 110 | 1700 |  |  |  |  |
| C[C@@H]1CN(c2c(C#N)c(=O)n(C)c3ccc(C#N)nc23)CCN1C(c1ccc(F)cc1)c1cnsc1 (stereo partly drawn) [Example 1028] | 7000 |  | 1500 | 2800 |  |  |  |  |
| C[C@@H]1CN(c2c(C#N)c(=O)n(C)c3ccc(C#N)nc23)CCN1C(c1ccc(F)cc1)c1cccc(F)c1 (stereo partly drawn) [Example 881] |  |  |  |  | 3000 | 5300 | 2100 |  |
| CC(c1cccc(OC(F)(F)F)c1F)N1C[C@H](C)N(c2cc(=O)n(C)c3ccc(C#N)nc23)C[C@H]1C (single isomer, unassigned) [Example 1209] | 1200 | 12000 | 20000 |  |  |  |  |  |
| CC[C@H]1CN(C(c2ccc(Cl)cc2)c2ccc(F)cn2)[C@H](C)CN1c1cc(=O)n(C)c2ccc(C#N)nc12 (single isomer, unassigned) [Example 1130] | 430 | 280 | 170 |  |  |  |  |  |
| CC(c1cccc(OC(F)(F)F)c1)N1C[C@H](C)N(c2cc(=O)n(C)c3ccc(C#N)nc23)C[C@H]1C (single isomer, unassigned) [Example 1267] | 110 |  | 3500 | 730 |  |  |  |  |
| C[C@@H]1CN(c2c(C#N)c(=O)n(C)c3ccc(C#N)nc23)CCN1C(c1ccc(F)cc1)c1ccccc1F (stereo partly drawn) [Example 882] |  |  |  |  | 960 | 820 | 1700 |  |
| COCC(F)(F)C(c1ccc(F)cc1)N1C[C@H](C)N(c2cc(=O)n(C)c3ccc(C#N)nc23)C[C@H]1C (single isomer, unassigned) [Example 1312] | 150 |  | 100 | 330 |  |  |  |  |

| SMILES | IC50 ([1]; liposome (LIPGLO) assay) [nM] | EC50 [2, 4] [nM] | IC50 [3, 5] [nM] | EC50 [2, 6] [nM] | IC50 ([1]; DGKζ liposome (LIPGLO) assay) [nM] | IC50 [3, 8] [nM] | EC50 [2, 9] [nM] | further results |
| --- | --- | --- | --- | --- | --- | --- | --- | --- |
| CC[C@@H]1CN(c2c(F)c(=O)n(C)c3ccc(C#N)nc23)[C@@H](C)CN1C(C)c1ccc(OC(F)(F)F)cc1 (single isomer, unassigned) [Example 1328] | 1500 |  | 4900 | 3400 |  |  |  |  |
| CC[C@@H]1CN(c2cc(=O)n(C)c3ccc(C#N)nc23)[C@@H](C)CN1C(C)c1ccc(C(F)(F)F)cc1F (single isomer, unassigned) [Example 1086] | 2100 | 2500 | 6200 |  |  |  |  |  |
| Cc1cccc(C(c2ccc(F)cc2)N2C[C@H](C)N(c3c(C#N)c(=O)n(C)c4ccc(C#N)nc34)C[C@H]2C)n1 (stereo partly drawn) [Example 816] |  |  |  |  | 3100 | 2600 | 1100 |  |
| CC(c1ccc(Cl)cc1)N1C[C@H](C)N(c2c(C#N)c(=O)n(C)c3ccc(C#N)nc23)C[C@H]1C (single isomer, unassigned) [Example 791] |  |  |  |  | 5700 |  | 1300 | IC50 ([3]; DGKa LIPGLO IC50, DGKα liposome (LIPGLO) assay): 1900 nM |
| C[C@@H]1CN(c2cc(=O)n(C)c3ccc(C#N)nc23)[C@@H](C)CN1C(c1ccc(F)cc1)c1ccc(C(F)(F)F)cn1 (single isomer, unassigned) [Example 680] | 2500 |  | 1200 | 480 |  |  |  |  |
| CC[C@H]1CN(C(c2ccc(F)cc2)c2cscn2)[C@H](CC)CN1c1cc(=O)n(C)c2ccc(C#N)nc12 (single isomer, unassigned) [Example 1070] | 180 | 1100 | 13 |  |  |  |  |  |
| C[C@@H]1CN(c2c(C#N)c(=O)n(C)c3ccc(C#N)nc23)[C@@H](C)CN1C(c1ccc(F)cc1)c1cc(C2CC2)on1 (single isomer, unassigned) [Example 868] |  |  |  |  | 2400 | 440 |  | EC50 [2, 7]: 2200 nM |
| C[C@H]1CN(C(c2ccc(F)cc2)c2ccon2)[C@H](CO)CN1c1cc(=O)n(C)c2ccc(C#N)nc12 (single isomer, unassigned) [Example 1391] | 2000 | 700 | 150 |  |  |  |  |  |
| C[C@@H]1CN(c2cc(=O)n(C)c3ccc(C#N)nc23)[C@@H](C)CN1C(c1ccc(F)cc1)c1cc(C(C)(C)C)on1 (single isomer, unassigned) [Example 732] |  |  |  |  | 150 | 44 | 440 |  |
| CC[C@H]1CN(C(C)c2ccc(OC(F)(F)F)cc2)[C@H](C)CN1c1cc(=O)n(C)c2ccc(C#N)nc12 (single isomer, unassigned) [Example 1141] | 370 | 470 | 8.3 |  |  |  |  |  |
| Cc1ccc(C(c2ccc(Cl)cc2)N2CCN(c3c(C#N)c(=O)n(C)c4ccc(C#N)nc34)C[C@H]2C)cc1 (single isomer, unassigned) [Example 945] |  |  |  |  | 9300 | 9800 | 1600 |  |
| CC(c1ccc(P(C)(C)=O)cc1)N1C[C@H](C)N(c2cc(=O)n(C)c3ccc(C#N)nc23)C[C@H]1C (stereo partly drawn) [Example 1290] | 43000 |  | 170000 | 20000 |  |  |  |  |
| CC[C@H]1CN(C(C)c2ccc(F)cc2F)[C@H](C)CN1c1cc(=O)n(C)c2ccc(C#N)nc12 (single isomer, unassigned) [Example 1138] | 1400 | 3700 | 980 |  |  |  |  |  |
| CC(c1ccc(Br)cc1)N1CCN(c2c(C#N)c(=O)n(C)c3ccc(C#N)nc23)C[C@H]1C (single isomer, unassigned) [Example 975] |  |  |  |  | 83000 | 330 | 20000 |  |
| C[C@@H]1CN(c2cc(=O)n(C)c3ccc(C#N)nc23)[C@@H](C)CN1C(c1ccc(F)cc1)C(C)(C)O (single isomer, unassigned) [Example 1308] | 2200 | 2100 | 20000 |  |  |  |  |  |
| C[C@@H]1CN(c2c(C#N)c(=O)n(C)c3ccc(C#N)nc23)[C@@H](C)CN1C(c1ccc(F)cc1)c1ccccn1 (single isomer, unassigned) [Example 843] |  |  |  |  | 880 | 750 | 3800 |  |
